Reference: ChEMBL document CHEMBL4665624, “Synthesis of 5-(4-(1H-phenanthro[9,10-d]imidazol-2-yl)benzylidene)thiazolidine-2,4-dione as promising DNA and serum albumin-binding agents and evaluation of antitumor activity” (Eur J Med Chem, 2019)

Tests used:
NCI-H226 = experiment: Antitumor activity against human NCI-H226 assessed as cell growth inhibition at 10 uM incubated for 48 hrs by sulforhodamine B assay; format: functional; settings: read-out: GI
RPMI-8226 = experiment: Antitumor activity against human RPMI8226 cells assessed as cell growth inhibition at 10 uM incubated for 48 hrs by sulforhodamine B assay; format: functional; settings: read-out: GI
SN12C = experiment: Antitumor activity against human SN12C cells assessed as cell growth inhibition at 10 uM incubated for 48 hrs by sulforhodamine B assay; format: functional; settings: read-out: GI
SF-268 = experiment: Antitumor activity against human SF268 cells assessed as cell growth inhibition at 10 uM incubated for 48 hrs by sulforhodamine B assay; format: functional; settings: read-out: GI
HCT-15 = experiment: Antitumor activity against human HCT15 cells assessed as cell growth inhibition at 10 uM incubated for 48 hrs by sulforhodamine B assay; format: functional; settings: read-out: GI
EKVX = experiment: Antitumor activity against human EKVX cells assessed as cell growth inhibition at 10 uM incubated for 48 hrs by sulforhodamine B assay; format: functional; settings: read-out: GI
SK-OV-3 = experiment: Antitumor activity against human SK-OV-3 cells assessed as cell growth inhibition at 10 uM incubated for 48 hrs by sulforhodamine B assay; format: functional; settings: read-out: GI
MDA-MB-435 = experiment: Antitumor activity against human MDA-MB-435 cells assessed as cell growth inhibition at 10 uM incubated for 48 hrs by sulforhodamine B assay; format: functional; settings: read-out: GI
ACHN = experiment: Antitumor activity against human ACHN cells assessed as cell growth inhibition at 10 uM incubated for 48 hrs by sulforhodamine B assay; format: functional; settings: read-out: GI
K562 = experiment: Antitumor activity against human K562 cells assessed as cell growth inhibition at 10 uM incubated for 48 hrs by sulforhodamine B assay; format: functional; settings: read-out: GI
MDA-MB-231 = experiment: Antitumor activity against human MDA-MB-231/ATCC cells assessed as cell growth inhibition at 10 uM incubated for 48 hrs by sulforhodamine B assay; format: functional; settings: read-out: GI
OVCAR-4 = experiment: Antitumor activity against human OVCAR-4 cells assessed as cell growth inhibition at 10 uM incubated for 48 hrs by sulforhodamine B assay; format: functional; settings: read-out: GI
SK-MEL-28 = experiment: Antitumor activity against human SK-MEL-28 cells assessed as cell growth inhibition at 10 uM incubated for 48 hrs by sulforhodamine B assay; format: functional; settings: read-out: GI
UO-31 = experiment: Antitumor activity against human UO-31 cells assessed as cell growth inhibition at 10 uM incubated for 48 hrs by sulforhodamine B assay; format: functional; settings: read-out: GI
UACC-62 = experiment: Antitumor activity against human UACC-62 cells assessed as cell growth inhibition at 10 uM incubated for 48 hrs by sulforhodamine B assay; format: functional; settings: read-out: GI
LOX IMVI = experiment: Antitumor activity against human LOX IMVI cells assessed as cell growth inhibition at 10 uM incubated for 48 hrs by sulforhodamine B assay; format: functional; settings: read-out: GI
A498 = experiment: Antitumor activity against human A498 cells assessed as cell growth inhibition at 10 uM incubated for 48 hrs by sulforhodamine B assay; format: functional; settings: read-out: GI
HOP-92 = experiment: Antitumor activity against human HOP92 cells assessed as cell growth inhibition at 10 uM incubated for 48 hrs by sulforhodamine B assay; format: functional; settings: read-out: GI
NCI-H522 = experiment: Antitumor activity against human NCI-H522 cells assessed as cell growth inhibition at 10 uM incubated for 48 hrs by sulforhodamine B assay; format: functional; settings: read-out: GI
BT-549 = experiment: Antitumor activity against human BT-549 cells assessed as cell growth inhibition at 10 uM incubated for 48 hrs by sulforhodamine B assay; format: functional; settings: read-out: GI
SNB-75 = experiment: Antitumor activity against human SNB-75 cells assessed as cell growth inhibition at 10 uM incubated for 48 hrs by sulforhodamine B assay; format: functional; settings: read-out: GI
CCRF-CEM = experiment: Antitumor activity against human CCRF-CEM cells assessed as cell growth inhibition at 10 uM incubated for 48 hrs by sulforhodamine B assay; format: functional; settings: read-out: GI
OVCAR-3 = experiment: Antitumor activity against human OVCAR-3 cells assessed as cell growth inhibition at 10 uM incubated for 48 hrs by sulforhodamine B assay; format: functional; settings: read-out: GI
NCI-H23 = experiment: Antitumor activity against human NCI-H23 cells assessed as cell growth inhibition at 10 uM incubated for 48 hrs by sulforhodamine B assay; format: functional; settings: read-out: GI
RXF 393 = experiment: Antitumor activity against human RXF 393 cells assessed as cell growth inhibition at 10 uM incubated for 48 hrs by sulforhodamine B assay; format: functional; settings: read-out: GI
PC-3 = experiment: Antitumor activity against human PC-3 cells assessed as cell growth inhibition at 10 uM incubated for 48 hrs by sulforhodamine B assay; format: functional; settings: read-out: GI
SF-295 = experiment: Antitumor activity against human SF295 cells assessed as cell growth inhibition at 10 uM incubated for 48 hrs by sulforhodamine B assay; format: functional; settings: read-out: GI
SW-620 = experiment: Antitumor activity against human SW620 cells assessed as cell growth inhibition at 10 uM incubated for 48 hrs by sulforhodamine B assay; settings: SW-620, 48 h, read-out: GI
Hs-578T = experiment: Antitumor activity against human HS 578T cells assessed as cell growth inhibition at 10 uM incubated for 48 hrs by sulforhodamine B assay; format: functional; settings: read-out: GI
COLO 205 = experiment: Antitumor activity against human COLO205 cells assessed as cell growth inhibition at 10 uM incubated for 48 hrs by sulforhodamine B assay; format: functional; settings: read-out: GI
HCT-116 = experiment: Antitumor activity against human HCT116 cells assessed as cell growth inhibition at 10 uM incubated for 48 hrs by sulforhodamine B assay; format: functional; settings: read-out: GI
IGROV-1 = experiment: Antitumor activity against human IGROV1 cells assessed as cell growth inhibition at 10 uM incubated for 48 hrs by sulforhodamine B assay; format: functional; settings: read-out: GI
MCF7 = experiment: Antitumor activity against human MCF7 cells assessed as cell growth inhibition at 10 uM incubated for 48 hrs by sulforhodamine B assay; format: functional; settings: read-out: GI
KM12 = experiment: Antitumor activity against human KM12 cells assessed as cell growth inhibition at 10 uM incubated for 48 hrs by sulforhodamine B assay; format: functional; settings: read-out: GI
Malme-3M = experiment: Antitumor activity against human MALME-3M cells assessed as cell growth inhibition at 10 uM incubated for 48 hrs by sulforhodamine B assay; format: functional; settings: read-out: GI
M14 = experiment: Antitumor activity against human M14 cells assessed as cell growth inhibition at 10 uM incubated for 48 hrs by sulforhodamine B assay; format: functional; settings: read-out: GI
HCC 2998 = experiment: Antitumor activity against human HCC2998 cells assessed as cell growth inhibition at 10 uM incubated for 48 hrs by sulforhodamine B assay; format: functional; settings: read-out: GI
OVCAR-8 = experiment: Antitumor activity against human OVCAR-8 cells assessed as cell growth inhibition at 10 uM incubated for 48 hrs by sulforhodamine B assay; format: functional; settings: read-out: GI
SR = experiment: Antitumor activity against human SR cells assessed as cell growth inhibition at 10 uM incubated for 48 hrs by sulforhodamine B assay; format: functional; settings: read-out: GI
NCI-H460 = experiment: Antitumor activity against human NCI-H460 assessed as cell growth inhibition at 10 uM incubated for 48 hrs by sulforhodamine B assay; format: functional; settings: read-out: GI
HT-29 = experiment: Antitumor activity against human HT-29 cells assessed as cell growth inhibition at 10 uM incubated for 48 hrs by sulforhodamine B assay; format: functional; settings: read-out: GI
SNB-19 = experiment: Antitumor activity against human SNB-19 cells assessed as cell growth inhibition at 10 uM incubated for 48 hrs by sulforhodamine B assay; format: functional; settings: read-out: GI
786-0 = experiment: Antitumor activity against human 786-0 cells assessed as cell growth inhibition at 10 uM incubated for 48 hrs by sulforhodamine B assay; format: functional; settings: read-out: GI
U-251 = experiment: Antitumor activity against human U251 cells assessed as cell growth inhibition at 10 uM incubated for 48 hrs by sulforhodamine B assay; format: functional; settings: read-out: GI
MDA-MB-468 = experiment: Antitumor activity against human MDA-MB-468 cells assessed as cell growth inhibition at 10 uM incubated for 48 hrs by sulforhodamine B assay; format: functional; settings: read-out: GI
HL-60(TB) = experiment: Antitumor activity against human HL-60(TB) cells assessed as cell growth inhibition at 10 uM incubated for 48 hrs by sulforhodamine B assay; format: functional; settings: read-out: GI
MOLT-4 = experiment: Antitumor activity against human MOLT4 cells assessed as cell growth inhibition at 10 uM incubated for 48 hrs by sulforhodamine B assay; format: functional; settings: read-out: GI
NCI/ADR-RES = experiment: Antitumor activity against human NCI/ADR-RES cells assessed as cell growth inhibition at 10 uM incubated for 48 hrs by sulforhodamine B assay; format: functional; settings: read-out: GI

Oc1ccccc1-c1nc2c3ccccc3c3ccccc3c2o1
inhibition of growth at 10 µM (NCI-H226): 14.2% | inhibition of growth at 10 µM (RPMI-8226): 24.5% | inhibition of growth at 10 µM (SN12C): 17% | inhibition of growth at 10 µM (SF-268): 10.2% | inhibition of growth at 10 µM (HCT-15): < 10% | inhibition of growth at 10 µM (EKVX): 21.2% | inhibition of growth at 10 µM (SK-OV-3): < 10% | inhibition of growth at 10 µM (MDA-MB-435): < 10% | inhibition of growth at 10 µM (ACHN): < 10% | inhibition of growth at 10 µM (K562): 11.9% | inhibition of growth at 10 µM (MDA-MB-231): 18.3% | inhibition of growth at 10 µM (OVCAR-4): 23.6% | inhibition of growth at 10 µM (SK-MEL-28): < 10% | inhibition of growth at 10 µM (UO-31): 39% | inhibition of growth at 10 µM (UACC-62): 11.6% | inhibition of growth at 10 µM (LOX IMVI): < 10% | inhibition of growth at 10 µM (A498): < 10% | inhibition of growth at 10 µM (HOP-92): 16.2% | inhibition of growth at 10 µM (NCI-H522): < 10% | inhibition of growth at 10 µM (BT-549): < 10% | inhibition of growth at 10 µM (SNB-75): 10.3% | inhibition of growth at 10 µM (CCRF-CEM): 17.9% | inhibition of growth at 10 µM (OVCAR-3): < 10% | inhibition of growth at 10 µM (NCI-H23): 14.5% | inhibition of growth at 10 µM (RXF 393): < 10% | inhibition of growth at 10 µM (PC-3): 22.2% | inhibition of growth at 10 µM (SF-295): < 10% | inhibition of growth at 10 µM (SW-620): 31.6% | inhibition of growth at 10 µM (Hs-578T): 10.5% | inhibition of growth at 10 µM (COLO 205): 14.3% | inhibition of growth at 10 µM (HCT-116): 19.2% | inhibition of growth at 10 µM (IGROV-1): 25.9% | inhibition of growth at 10 µM (MCF7): 37.6% | inhibition of growth at 10 µM (KM12): < 10% | inhibition of growth at 10 µM (Malme-3M): < 10% | inhibition of growth at 10 µM (M14): < 10% | inhibition of growth at 10 µM (HCC 2998): < 10% | inhibition of growth at 10 µM (OVCAR-8): 11% | inhibition of growth at 10 µM (SR): 26.3% | inhibition of growth at 10 µM (NCI-H460): 30.4% | inhibition of growth at 10 µM (HT-29): < 10% | inhibition of growth at 10 µM (SNB-19): < 10% | inhibition of growth at 10 µM (786-0): < 10% | inhibition of growth at 10 µM (U-251): 18% | inhibition of growth at 10 µM (MDA-MB-468): 17% | inhibition of growth at 10 µM (HL-60(TB)): 12% | inhibition of growth at 10 µM (MOLT-4): < 10% | inhibition of growth at 10 µM (NCI/ADR-RES): < 10%
